Calls of active or inactive are those of the source. No cut-off for these calls is given here.
Assays:
[1] = tested on: Chikungunya virus; type: functional, organism-based; conditions: 181-25, Vero, dose 10.0 µM, time 20.0 hrs
[2] = tested on: Chikungunya virus; assay: Antiviral activity against resistance mutation induced CHIKV-117 infected in […] cells assessed as viral infectivity in Vero cells at 10 uM measured up to 24 hrs of post infection by supernatant was quantified by plaque assay; type: functional, organism-based; conditions: time hrs <=24
[3] = tested on: Chikungunya virus; assay: Antiviral activity against CHIKV 99659 infected in Asian tiger mosquito C6/36 cells assessed as reduction in virus titer in cell supernatant by measuring inhibition of plaque formation using Vero cells and measured following infection of supernatants with Vero cells for 48 hrs pi by serial dilution plaque based methylene blue dye analysis; type: functional; conditions: Chikungunya virus, 99659, C6
[4] = tested on: Chikungunya virus; type: functional, organism-based; conditions: 181-25, NHDF, dose 20.0 µM, time 13.0 hrs
[5] = tested on: Chikungunya virus; assay: Antiviral activity against CHIKV infected in mouse NIH3T3 cells assessed as reduction in virus titer in cell supernatant by measuring inhibition of plaque formation using Vero cells pretreated with NIH3T3 cells followed by infected with virus incubated for 24 hrs and measured following infection of supernatants with Vero cells for 48 hrs by plaque based methylene blue dye analysis; type: functional; conditions: dose 10 µM
[6] = tested on: Chikungunya virus; type: functional, organism-based; conditions: 181-25, NHDF, dose 20.0 µM, time 13.0 hrs; remark: listed apart in the source
[7] = tested on: Onyong-nyong virus; assay: Antiviral activity against O'nyong-nyong virus infected in Asian tiger mosquito C6/36 cells assessed as reduction in virus titer in cell supernatant by measuring inhibition of plaque formation using Vero cells and measured following infection of supernatants with Vero cells for 48 hrs pi by serial dilution plaque based methylene blue dye analysis; type: functional
[8] = tested on: Mayaro virus; assay: Antiviral activity against Mayaro virus TRVL infected in Asian tiger mosquito C6/36 cells assessed as reduction in virus titer in cell supernatant by measuring inhibition of plaque formation using Vero cells and measured following infection of supernatants with Vero cells for 48 hrs pi by serial dilution plaque based methylene blue dye analysis; type: functional
[9] = tested on: West Nile virus; assay: Antiviral activity against West nile virus infected in HEK293 cells assessed as reduction in virus titer in cell supernatant by measuring inhibition of plaque formation using Vero cells at 10 uM measured following infection of supernatants with Vero cells for 48 hrs pi by serial dilution plaque based methylene blue dye analysis; type: functional
[10] = Antiviral activity against Ross river virus infected in Asian tiger mosquito C6/36 cells assessed as reduction in virus titer in cell supernatant by measuring inhibition of plaque formation using Vero cells and measured following infection of supernatants with Vero cells for 48 hrs pi by serial dilution plaque based methylene blue dye analysis; type: functional
[11] = tested on: Venezuelan equine encephalitis virus; assay: Antiviral activity against Venezuelan equine encephalitis virus TC83 infected in Asian tiger mosquito C6/36 cells assessed as reduction in virus titer in cell supernatant by measuring inhibition of plaque formation using Vero cells and measured following infection of supernatants with Vero cells for 48 hrs pi by serial dilution plaque based methylene blue dye analysis; type: functional
[12] = tested on: Chikungunya virus; assay: Antiviral activity against CHIKV-nLuc RNA transfected NHDF cells assessed as decrease in Nano-luc signal at 20 uM pretreated 24 hrs before transfection in presence of guanosine measured after 24 hrs by Nano-Glo luciferase assay; type: functional, organism-based
[13] = tested on: Chikungunya virus; assay: Antiviral activity against resistance mutation induced CHIKV-117/119 infected in […] cells assessed as viral infectivity in Vero cells at 10 uM measured up to 24 hrs of post infection by supernatant was quantified by plaque assay; type: functional, organism-based; conditions: time hrs <=24
[14] = tested on: Chikungunya virus; assay: Antiviral activity against CHIKV-nLuc RNA transfected NHDF cells assessed as decrease in CHIKV RNA at 10 uM pretreated 1 hr before transfection measured after 12 hrs by Nano-Glo luciferase assay; type: functional, organism-based; conditions: time 13.0 hrs
[15] = tested on: dengue virus type 2; assay: Antiviral activity against DENV2 infected in HEK293 cells assessed as reduction in virus titer in cell supernatant by measuring inhibition of plaque formation using Vero cells at 10 uM measured following infection of supernatants with Vero cells for 48 hrs pi by serial dilution plaque based methylene blue dye analysis; type: functional
[16] = tested on: Venezuelan equine encephalitis virus; assay: Antiviral activity against Venezuelan equine encephalitis virus TC83 infected in human […] cells assessed as reduction in virus titer in cell supernatant by measuring inhibition of plaque formation using Vero cells at 10 uM measured following infection of supernatants with Vero cells for 48 hrs pi by serial dilution plaque based methylene blue dye analysis; type: functional, NHDF
[17] = tested on: Una virus; assay: Antiviral activity against Una virus MAC150 infected in Asian tiger mosquito C6/36 cells assessed as reduction in virus titer in cell supernatant by measuring inhibition of plaque formation using Vero cells and measured following infection of supernatants with Vero cells for 48 hrs pi by serial dilution plaque based methylene blue dye analysis; type: functional
[18] = tested on: Chikungunya virus; assay: Antiviral activity against CHIKV infected in human NHDF cells assessed as reduction in virus titer in cell supernatant by measuring inhibition of plaque formation using Vero cells at 10 uM pretreated with NHDF cells followed by infected with virus incubated for 24 hrs and measured following infection of supernatants with Vero cells for 48 hrs by plaque based methylene blue dye analysis; type: functional; conditions: time 72 hrs
[19] = tested on: Chikungunya virus; assay: Antiviral activity against CHIKV LR2006-OPY1 infected in Asian tiger mosquito C6/36 cells assessed as reduction in virus titer in cell supernatant by measuring inhibition of plaque formation using Vero cells and measured following infection of supernatants with Vero cells for 48 hrs pi by serial dilution plaque based methylene blue dye analysis; type: functional
[20] = target: Dihydroorotate dehydrogenase (quinone), mitochondrial (Homo sapiens, UniProt Q02127)
[21] = tested on: Chikungunya virus; assay: Antiviral activity against resistance mutation induced CHIKV-119 infected in […] cells assessed as viral infectivity in Vero cells at 10 uM measured up to 24 hrs of post infection by supernatant was quantified by plaque assay; type: functional, organism-based; conditions: time hrs <=24
[22] = Cytotoxicity against human NHDF cells assessed as cell viability measured after 24 hrs by Cell Titer Glo luminescent assay; type: cell-based; conditions: NHDF cells
[23] = Cytotoxicity against HEK293 cells at 10 uM; type: cell-based; conditions: human
[24] = tested on: Chikungunya virus; assay: Antiviral activity against CHIKV-nLuc RNA transfected NHDF cells assessed as decrease in Nano-luc signal at 20 uM pretreated 24 hrs before transfection in presence of uridine measured after 24 hrs by Nano-Glo luciferase assay; type: functional, organism-based; conditions: time 48.0 hrs
[25] = tested on: Chikungunya virus; type: functional, organism-based; conditions: 181-25, NHDF, dose 20.0 µM, time 13.0 hrs; remark: listed apart in the source
[26] = tested on: Chikungunya virus; assay: Antiviral activity against CHIKV infected in IFN regulatory factor 3 telomerized human fibroblast cells assessed as reduction in virus titer in cell supernatant by measuring inhibition of plaque formation using Vero cells […] followed by infected with virus incubated for 24 hrs and measured following infection of supernatants with Vero cells for 48 hrs by plaque based …; type: functional; conditions: time 72 hrs
[27] = tested on: Chikungunya virus; type: functional, organism-based; conditions: 181-25, NHDF, dose 20.0 µM, time 13.0 hrs; remark: listed apart in the source
[28] = tested on: Chikungunya virus; assay: Antiviral activity against CHIKV 37997 infected in Asian tiger mosquito C6/36 cells assessed as reduction in virus titer in cell supernatant by measuring inhibition of plaque formation using Vero cells and measured following infection of supernatants with Vero cells for 48 hrs pi by serial dilution plaque based methylene blue dye analysis; type: functional; conditions: Chikungunya virus, 37997, C6

Dihydroorotate dehydrogenase (quinone), mitochondrial, sequence (Q02127 whole entry): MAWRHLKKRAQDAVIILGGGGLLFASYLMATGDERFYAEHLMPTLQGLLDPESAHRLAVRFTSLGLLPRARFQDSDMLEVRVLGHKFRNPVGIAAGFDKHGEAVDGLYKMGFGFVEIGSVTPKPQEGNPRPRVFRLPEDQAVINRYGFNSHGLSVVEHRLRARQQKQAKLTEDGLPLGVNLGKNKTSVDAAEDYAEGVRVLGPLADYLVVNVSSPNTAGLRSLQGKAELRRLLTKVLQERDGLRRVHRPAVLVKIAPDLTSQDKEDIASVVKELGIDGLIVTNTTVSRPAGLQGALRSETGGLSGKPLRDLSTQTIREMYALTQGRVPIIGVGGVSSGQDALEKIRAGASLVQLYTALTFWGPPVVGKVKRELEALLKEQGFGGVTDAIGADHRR

## COc1cc2c(cc1NC(=O)c1ccc(C(C)(C)C)cc1)CCCCC2
[1]
  inhibition: Active
[2]
  Activity: Active
[3]
  EC90: 780 nM
[4]
  inhibition: Active
[5]
  EC90: 1010 nM
[6]
  inhibition: Active
[7]
  EC90: 180 nM
[8]
  EC90: 250 nM
[9]
  log(activity): 2
[10]
  EC90: 210 nM
[11]
  EC90: 2900 nM
[12]
  Activity: Active
[13]
  Activity: Active
[14]
  inhibition: Active
[15]
  log(activity): 1.5
[16]
  log(activity): 2.7
[17]
  EC90: 340 nM
[18]
  log(activity): 4
[19]
  EC90: 150 nM
[20]
  IC50: 3500 nM
[21]
  Activity: Active
[22]
  CC50 at 24 h: 78500 nM
[23]
  CC50: > 30000 nM
[24]
  Activity: inactive
[25]
  inhibition: Active
[26]
  EC90: 4870 nM
[27]
  inhibition: Active
[28]
  EC90: 180 nM
